Data on 12 compounds can be found in ChEMBL document CHEMBL1201862, “PubChem BioAssay data set” (2004).

Test systems include HCT-15; OVCAR-5; EKVX; CCRF-CEM; TK-10; RPMI-8226; HL-60; M14; HOP-62; UACC-257; NCI-H522; SNB-19; RXF 393; OVCAR-4; KM12; SF-268; K562; IGROV-1; T47D; DU-145.
Common to all, as to assay: growth of human tumour cells (NCI), 48 h

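1) Cells in 96-well plates. 2) Compound, 48 h, 5 concentrations. 3) Linear interpolation between surrounding doses. 4) Unreached endpoint = highest concentration. GI50 = concentration required for 50% inhibition of growth.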 Active and inactive are the calls of the source. Cut-off read from the data, not from the text of the source: active = GI50 up to about 1.1 µM and inactive = higher.

On to `CCOc1ccccc1NC(=O)CC(C(=O)OC)C(=O)C(=O)OC` (stereo not given), for which the GI50 with HCT-15 is above 100 µM; in the test with OVCAR-5, > 100 µM (inactive); with EKVX it was > 100 µM (inactive); in the test on CCRF-CEM, > 100 µM (inactive); in the test on TK-10 it was > 100 µM (inactive); in the test on RPMI-8226 it was > 100 µM (inactive). Besides, the GI50 in the test with HL-60, with M14, with HOP-62, in the test with UACC-257, in the test on NCI-H522 and in the test with SNB-19 was > 100 µM (inactive) throughout. Moreover, the GI50 in the test on RXF 393, in the test with OVCAR-4, in the test with KM12, with SF-268, in the test on K562 and with IGROV-1 was > 100 µM (inactive) in each case.
Regarding `O=S(=O)(SCc1ccccc1)C(c1ccccc1)c1ccccc1`, the GI50 in the test on HCT-15 is 30.5 µM; in the test on OVCAR-5, > 100 µM (inactive); in the test on EKVX, 60.3 µM (inactive); with CCRF-CEM, 4.21 µM (inactive); in the test on TK-10, > 100 µM (inactive); in the test with RPMI-8226, 25 µM (inactive). Moreover, the GI50 in the test on HL-60 was 5.52 µM (inactive); with M14, 24 µM (inactive); in the test on HOP-62, > 100 µM (inactive); in the test with UACC-257, 32.9 µM (inactive); in the test with NCI-H522, 26.6 µM (inactive); in the test with SNB-19, > 100 µM (inactive). Besides, the GI50 in the test on RXF 393 is 21.9 µM (inactive); with OVCAR-4, 48.9 µM (inactive); in the test on KM12 it was 34.1 µM (inactive); in the test on SF-268, 57.1 µM (inactive); in the test on K562, 6.67 µM (inactive); in the test on IGROV-1 it was 32.7 µM (inactive).
For the compound `Cc1nc(C(N)=S)sc1C(=O)CC(=O)C(=O)Nc1ccc(Br)cc1`, the GI50 with HCT-15 is above 100 µM; in the test on OVCAR-5, > 100 µM (inactive); in the test with EKVX, > 100 µM (inactive); in the test with CCRF-CEM, > 100 µM (inactive); in the test with TK-10 it was > 100 µM (inactive); with RPMI-8226, > 100 µM (inactive). Further, the GI50 in the test with HL-60 was > 100 µM (inactive); in the test with M14, > 100 µM (inactive); in the test with HOP-62, > 100 µM (inactive); in the test with UACC-257, > 100 µM (inactive); in the test with NCI-H522 it was 66.4 µM (inactive); in the test with RXF 393, > 100 µM (inactive). The GI50 in the test with OVCAR-4, in the test on KM12, in the test on SF-268, in the test with T47D, in the test with K562 and with IGROV-1 was > 100 µM (inactive) each time.
For the compound `COc1ccc(C#CC(=O)O)c(OC)c1`, the GI50 in the test on HCT-15 is above 100 µM; with OVCAR-5, > 100 µM (inactive); in the test with EKVX, > 100 µM (inactive); in the test on CCRF-CEM it was > 100 µM (inactive); in the test on TK-10 it was > 100 µM (inactive); with RPMI-8226, > 100 µM (inactive). For the same compound, the GI50 in the test on HL-60, in the test on M14, in the test on HOP-62, with UACC-257, with SNB-19 and in the test with OVCAR-4 was > 100 µM (inactive) each time. Besides, the GI50 in the test with DU-145, with KM12, with T47D and with K562 was > 100 µM (inactive) throughout.
As for `[O-][S+]1c2ccccc2NC(c2ccc3ccccc3c2)CC1c1ccccc1` (stereo not given), the GI50 with HCT-15 was 22.3 µM; with OVCAR-5, 42 µM (inactive); in the test with EKVX, 26.6 µM (inactive); in the test on CCRF-CEM it was 17 µM (inactive); with TK-10 it was 35.4 µM (inactive); with RPMI-8226, 21.6 µM (inactive). Further, the GI50 was 24.3 µM (inactive) in the test on HL-60; 40.5 µM (inactive) in the test on M14; 40.6 µM (inactive) in the test on HOP-62; 32.4 µM (inactive) with UACC-257; 17.8 µM (inactive) in the test on NCI-H522; 30.6 µM (inactive) in the test with SNB-19. Further, the GI50 in the test with RXF 393 is 14.8 µM (inactive); with OVCAR-4 it was 23.9 µM (inactive); in the test on KM12, 16.7 µM (inactive); in the test with SF-268 it was 36.4 µM (inactive); in the test with K562, 16 µM (inactive); in the test with IGROV-1, 19.3 µM (inactive).
On to `C=CCOCCCC(=O)C(=[N+]=[N-])C(=O)OC`, for which the GI50 with HCT-15 was above 100 µM; in the test with OVCAR-5, > 100 µM (inactive); with CCRF-CEM it was > 100 µM (inactive); with TK-10, > 100 µM (inactive); in the test with RPMI-8226, > 100 µM (inactive); in the test with HL-60 it was > 100 µM (inactive). Further, the GI50 in the test with M14, in the test on UACC-257, with NCI-H522, in the test with SNB-19, in the test with RXF 393 and with OVCAR-4 was > 100 µM (inactive) in each case. Besides, the GI50 in the test on DU-145, with KM12, with SF-268, in the test on K562 and in the test with IGROV-1 was > 100 µM (inactive) each time.
Take `C=C(C)C[C@H](Sc1nc2ccccc2s1)[C@H](C)O`: the GI50 with HCT-15 was 35.8 µM; in the test on OVCAR-5, 65.8 µM (inactive); in the test with EKVX, 32.4 µM (inactive); in the test on TK-10 it was 71.3 µM (inactive); in the test on RPMI-8226, 28.9 µM (inactive); with HL-60, 18.9 µM (inactive). Besides, the GI50 with M14 was 77.3 µM (inactive); with HOP-62, > 100 µM (inactive); in the test on UACC-257, 32.4 µM (inactive); with NCI-H522, 23.8 µM (inactive); with SNB-19 it was > 100 µM (inactive); with RXF 393, 48.3 µM (inactive). Besides, the GI50 in the test on OVCAR-4 is 70.1 µM (inactive); with DU-145, 88.1 µM (inactive); in the test on KM12, 41.2 µM (inactive); in the test with SF-268 it was 42.3 µM (inactive); in the test with K562 it was 33.7 µM (inactive); with IGROV-1, > 100 µM (inactive).
`CC1CC2(S(=O)(=O)c3ccccc3)ON1CC2S(=O)(=O)c1ccccc1` (stereo not given): the GI50 was above 100 µM in the test with HCT-15; > 100 µM (inactive) in the test on OVCAR-5; > 100 µM (inactive) in the test on EKVX; > 100 µM (inactive) with CCRF-CEM; > 100 µM (inactive) with TK-10; > 100 µM (inactive) with RPMI-8226. Further, the GI50 was > 100 µM (inactive) with HL-60; > 100 µM (inactive) in the test with M14; > 100 µM (inactive) with HOP-62; > 100 µM (inactive) in the test on UACC-257; 70.8 µM (inactive) with NCI-H522; > 100 µM (inactive) with SNB-19. Moreover, the GI50 in the test with RXF 393, in the test on OVCAR-4, in the test with KM12, in the test with SF-268, in the test with K562 and with IGROV-1 was > 100 µM (inactive) throughout.
Consider `O=C1/C(=C\c2ccc(Cl)cc2Cl)Sc2scc(-c3ccc(O)c(O)c3)[n+]21`, for which the GI50 in the test on HCT-15 was 14.8 µM; in the test with OVCAR-5, 16.4 µM (inactive); in the test on EKVX it was 19.9 µM (inactive); in the test on CCRF-CEM it was 17.7 µM (inactive); in the test with TK-10, 12.7 µM (inactive); in the test on HL-60 it was 8.77 µM (inactive). The GI50 in the test with M14 was 16.3 µM (inactive); in the test with HOP-62, 15.6 µM (inactive); in the test with UACC-257, 18.8 µM (inactive); in the test with NCI-H522, 16.5 µM (inactive); in the test with SNB-19, 17.6 µM (inactive); in the test with RXF 393 it was 12.4 µM (inactive). The GI50 is 13.4 µM (inactive) with OVCAR-4; 18.3 µM (inactive) in the test with DU-145; 15.1 µM (inactive) with KM12; 30.3 µM (inactive) in the test with SF-268; 21.2 µM (inactive) in the test on IGROV-1.
As to `N#Cc1nc(Cc2cccs2)oc1N`, the GI50 in the test on HCT-15 is above 100 µM; with OVCAR-5, > 100 µM (inactive); in the test with EKVX, > 100 µM (inactive); with CCRF-CEM, 47.5 µM (inactive); with TK-10 it was > 100 µM (inactive); with RPMI-8226, > 100 µM (inactive). For the same compound, the GI50 in the test with HL-60, with M14, in the test with HOP-62, in the test on UACC-257, with SNB-19 and in the test on RXF 393 was > 100 µM (inactive) in each case. In addition, the GI50 in the test on DU-145, with KM12, in the test on SF-268, in the test on K562 and in the test with IGROV-1 was > 100 µM (inactive) each time.
With `N/N=C1/C2CN3CCN(C2)CC1(c1ccc([N+](=O)[O-])cc1)C3`, the GI50 in the test on OVCAR-5, in the test with EKVX, in the test on TK-10, in the test with RPMI-8226, in the test with HL-60 and in the test with HOP-62 was > 100 µM (inactive) each time. Further, the GI50 in the test with UACC-257, in the test on NCI-H522, in the test with SNB-19, with RXF 393, in the test with OVCAR-4 and in the test with DU-145 was > 100 µM (inactive) throughout. Further, the GI50 in the test with KM12, in the test on SF-268, with K562 and with IGROV-1 was > 100 µM (inactive) in each case.
Turning to `C/C(=N\Nc1nc2ccccc2n1C)c1ccncn1`, the GI50 was below 0.0186 µM in the test with HCT-15; 1.52 µM (inactive) in the test with OVCAR-5; < 0.02 µM (active) with EKVX; 0.0618 µM (active) with CCRF-CEM; 1.52 µM (inactive) in the test on TK-10; 0.0202 µM (active) in the test with RPMI-8226. In addition, the GI50 with HL-60 is < 0.01 µM (active); in the test on M14 it was 0.0408 µM (active); with HOP-62 it was 5.38 µM (inactive); in the test with UACC-257, 0.0382 µM (active); in the test with NCI-H522 it was 0.0393 µM (active); with SNB-19, 0.65 µM (active). Moreover, the GI50 with RXF 393 is 1.55 µM (inactive); in the test with OVCAR-4, 0.17 µM (active); in the test on KM12, 0.265 µM (active); in the test with SF-268, 0.0762 µM (active); in the test on T47D, < 0.0501 µM (active); in the test on K562 it was < 0.0152 µM (active). In addition, the GI50 in the test with IGROV-1 is 0.0233 µM (active).
